# Test results from US20250228958A1, “TSP1 INHIBITOR” (Daiichi Sankyo Company, Limited, priority 2022, published 2025).
# Entries after “also recorded” stand apart in the source; their conditions may differ. Positions of bridges follow the written chain, without caps; N, C: chain ends. Non-standard residues stand in square brackets, D forms with d. Residues, ends and D or L forms follow the SMILES beside them. Chains are numbered I, II in the order given. No end group written: not given here. maleimide = maleimide-group-derived moiety in the linking group, forming a thioether bond with the thiol of a cysteine residue of the carrier molecule; KPEG = (2S)-6-amino-2-[[2-(methoxy-oligo(ethoxy))acetyl]amino]hexanoic acid (Lys with N-alpha methoxy-PEG acetyl); 2Nal = N[C@@H](Cc1ccc2ccccc2c1)C(=O)O; Gly(cPent) = N[C@H](C(=O)O)C1CCCC1; Agb = N=C(N)NCC[C@H](N)C(=O)O; Tle = CC(C)(C)[C@H](N)C(=O)O; hCys = N[C@@H](CCS)C(=O)O; P12P = not defined here
# Columns and labels:
# [1] = system: C57BL/6 mice, ischemic limb blood flow; experiment: Blood flow improvement measurement tests (femoral artery/vein ligation and excision, laser Doppler); format: in vivo, mouse; conditions: for blood flow AUC, % of vehicle group mean: blood flow AUC from beginning to end of measurement, ratio to vehicle-treated group mean; for %, ischemia/nonischemia (blood flow on the last day of measurement): mean ± standard error, ratio of ischemic limb flow to non-ischemic limb flow
# Text: Six to seven-week-old C57BL/6 mice were purchased from Charles River Laboratories Japan Inc., and acclimated over six days by feeding with a FR-2 solid diet (produced by Funabashi Farm Co., Ltd.). The rearing facility switched between light and dark modes in a 12-hour cycle with light turning on at 7 a.m. and turning off at 7 p.m. Under isoflurane inhalation anaesthesia, the left thighs of the mice were dissected, and the superficial femoral arteries and veins (from just below the deep femoral arteries to the popliteal artery and vein) were ligated and excised. […] Five mice were used for each treatment group.
# Blood flows were measured in ischemic (left) and non-ischemic (right) limbs using a laser Doppler perfusion imager (PeriScan PIM III, Moor LD12-HR). The improvement of blood flow was evaluated by the ratio of ischemic limb flow to non-ischemic limb flow. […] In addition, blood flow AUC was calculated to determine the ratio (%) of the mean value of the test substance-treated group to the mean value of the vehicle-treated group.
# [2] = Serum stability test, human serum; format: in vitro ADME; conditions: both sexes, residual ratio: IS ratio at 4 hours relative to 0 hours, 37° C.
# Text: (§1) • Mouse serum (BALB/c CrSlc, male, Japan SLC, Inc.) • Monkey serum (cynomolgus monkey, male, Japan SLC, Inc.) • Human serum (Caucasian, pool of 5 males and 5 females, KAC Co., Ltd.) • Phenacetin (Nacalai Tesque, Inc.) • Niflumic acid (Nacalai Tesque, Inc.) • Furosemide (Nacalai Tesque, Inc.) • Acetonitrile (FUJIFILM Wako Pure Chemical Corporation) • Methanol (FUJIFILM Wako Pure Chemical Corporation) • Formic acid (FUJIFILM Wako Pure Chemical Corporation) • Dimethyl sulfoxide (DMSO) (FUJIFILM Wako Pure Chemical Corporation)
# (§2) Solutions of Phenacetin, niflumic acid, and furosemide were prepared in DMSO at 10 μg/ml, 150 μg/ml, and 200 μg/ml, respectively. 10 μg/ml of phenacetin in DMSO, 150 μg/ml of niflumic acid in DMSO, and 200 μg/ml of furosemide in DMSO were dissolved in a mixture of […]/methanol (75/25, v/v) (final concentrations: phenacetin; 1 ng/mL, niflumic acid: 15 ng/mL, and furosemide 20 ng/mL), and formic acid was added to the prepared test solution (final concentration: 1% (v/v)) to prepare a formic acid-containing IS solution.
# (§3) The test substances were prepared in DMSO to a concentration of 10 mM each. Further, the solution was diluted with DMSO to a concentration of 2 mM to make a test substance solution.
# (§4) Each serum was preincubated at 37° C. for 5 minutes, and then the test substance solution was added to a final concentration of 20 μM to initiate the reaction. The test substance-added serum was incubated at 37° C. At 0 and 4 hours after the start of the reaction, a portion of the serum was taken out and added to the formic acid-containing IS solution to stop the reaction, which was used as a measurement sample.
# (§5) The test substance and IS (phenacetin, niflumic acid, and furosemide) in the measurement sample were measured by LC-MS/MS, and the peak area ratio (IS ratio) of the test substance to IS (any of phenacetin, niflumic acid, and furosemide) was calculated.
# (§6) The percentage of the IS ratio at 4 hours after the start of the reaction relative to that at 0 hours after the start of the reaction was used as a residual ratio to evaluate serum stability.
# human TSP1 = biological target: T1, human TSP1 (Homo sapiens, UniProt P07996); experiment: Cell adhesion inhibition assay (HUVEC adhesion to TSP1-coated plate); format: cell-based; conditions: inhibition of HUVEC adhesion to human TSP1-coated plate
# T1 construct: Thrombospondin human platelet (Calbiochem, 605225); purchased Calbiochem 605225; host or cells: human platelets (natural source, not recombinant)
# T1 sequence (P07996 19-1170): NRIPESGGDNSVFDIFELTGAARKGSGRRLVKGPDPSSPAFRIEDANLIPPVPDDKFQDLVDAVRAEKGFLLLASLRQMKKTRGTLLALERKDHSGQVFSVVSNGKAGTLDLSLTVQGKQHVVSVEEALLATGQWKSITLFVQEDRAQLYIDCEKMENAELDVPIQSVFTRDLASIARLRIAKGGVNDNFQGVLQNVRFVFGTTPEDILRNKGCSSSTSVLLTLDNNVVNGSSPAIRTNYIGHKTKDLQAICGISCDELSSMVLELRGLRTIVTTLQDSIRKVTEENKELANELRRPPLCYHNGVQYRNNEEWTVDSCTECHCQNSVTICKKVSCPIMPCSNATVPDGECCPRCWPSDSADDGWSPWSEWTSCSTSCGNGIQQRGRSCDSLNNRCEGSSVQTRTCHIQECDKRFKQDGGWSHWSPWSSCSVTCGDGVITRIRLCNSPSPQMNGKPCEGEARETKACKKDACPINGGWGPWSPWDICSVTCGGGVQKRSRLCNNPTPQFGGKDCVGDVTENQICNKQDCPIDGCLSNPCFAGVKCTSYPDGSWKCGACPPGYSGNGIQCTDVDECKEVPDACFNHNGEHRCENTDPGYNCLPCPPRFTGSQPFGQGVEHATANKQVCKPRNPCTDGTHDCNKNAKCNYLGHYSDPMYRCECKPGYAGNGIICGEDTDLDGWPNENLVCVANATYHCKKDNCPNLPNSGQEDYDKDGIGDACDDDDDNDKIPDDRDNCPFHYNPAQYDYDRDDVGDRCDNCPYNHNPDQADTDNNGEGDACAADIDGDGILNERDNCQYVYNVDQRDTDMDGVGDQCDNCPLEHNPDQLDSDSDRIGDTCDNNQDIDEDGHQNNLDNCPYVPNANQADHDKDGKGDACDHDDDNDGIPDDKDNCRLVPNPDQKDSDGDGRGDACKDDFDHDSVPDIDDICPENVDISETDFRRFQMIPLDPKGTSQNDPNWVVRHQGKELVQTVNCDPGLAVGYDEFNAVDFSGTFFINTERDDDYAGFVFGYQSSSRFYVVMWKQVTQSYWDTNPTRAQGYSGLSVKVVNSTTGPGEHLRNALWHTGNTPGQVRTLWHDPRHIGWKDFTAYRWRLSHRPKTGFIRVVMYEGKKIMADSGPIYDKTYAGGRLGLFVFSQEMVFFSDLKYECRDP
# Experimental: • 384-well Low Flange Black Flat Bottom Polystyrene Not Treated Microplate (Corning, 3573) • Proteosave(registered trademark) SS 15 mL (Sumitomo Bakelite, MS-52150) • Thrombospondin human platelet (Calbiochem, 605225) • HUVEC (KURABO, KE-4109P10) • EGM-2 MV (Lonza, CC-3202): for HUVEC passaging • Collagen coated dish (IWAKI, 4020-010): for HUVEC passaging • Lipidure(registered trademark)-BL802 (NOF Corporation), 5% solution • DMEM low glucose (GIBCO, 11054-020) • Bovine serum albumin (BSA) solution 30% (Sigma A9205) • CellTiter-Glo 2.0 (Promega G9242) […]
# To maintain human umbilical vein endothelial cells, HUVECs, EGM2-MV and a collagen coated dish were used (the cells were ceased to be used after 10th or 11th passage since the cell proliferation rate declined at this stage). […] After removal of supernatant, the cells were resuspended in a DMEM buffer, counted for cell number, and diluted to 6000 cells/10 μL. […]
# The culture medium was removed, and the plate was washed twice with 30 L/well of HBSS/Hepes 0.5% BSA. […] Fluorescence emission was detected using EnVision Xcite Multilabel Reader (produced by Perkin Elmer).
# On the basis of the measured fluorescence values, the IC50 values (nM) of the different cyclic peptides and conjugates for inhibition of cell adhesion were calculated. […]
# [3] = Serum stability test, monkey serum; format: in vitro ADME, cynomolgus monkey; conditions: male, residual ratio: IS ratio at 4 hours relative to 0 hours, 37° C.
# Text: as §1, §2, §3, §4, §5, §6
# [4] = Serum stability test, mouse serum; format: in vitro ADME
# Text: as §1, §2, §3, §4, §5, §6
# [5] = biological target: Thrombospondin human platelet (Calbiochem, 605225) (human, UniProt P07996 19-1170); experiment: cell-based or functional assay
# Thrombospondin human platelet (Calbiochem, 605225), sequence (P07996 19-1170 limits assumed): as the sequence (P07996 19-1170) above
molecule,measurement,setting,value
CC(=O)N[C@H]1[C@H]([C@H](O)[C@H](O)CO)O[C@](CO)(OC[C@H]2O[C@@H](OC3[C@@H](CO)C[C@H](O[C@@H]4[C@@H](OC[C@H]5OC(O[C@H]6[C@H](O)[C@@H](NC(C)=O)C(O[C@H]7[C@H](O)[C@@H](NC(C)=O)C(OCC(=O)NCCCC[C@H](NC(=O)CNC(=O)CNC(=O)CNC(=O)CNC(=O)[C@@H]8CSCC(=O)N[C@@H](Cc9ccc%10ccccc%10c9)C(=O)N[C@H](CCCNC(=N)N)C(=O)N[C@@H](CO)C(=O)NCC(=O)N[C@@H](CCNC(=N)N)C(=O)N[C@H](CC(N)=O)C(=O)N[C@@H](Cc9c[nH]c%10ccccc9%10)C(=O)N[C@@H](C(C)N)C(=O)N[C@H](CCCNC(=N)N)C(=O)N[C@@H](Cc9c[nH]c%10ccccc9%10)C(=O)N[C@@H](C9CCCC9)C(=O)N8)C(=O)NCCOCCOCCOCCOCCOCCOCCOCCOCCOCCOCCOCCOCCC(=O)NCCOCCOCCOCCOCCOCCOCCOCCOCCOCCOCCOCCOCCC(=O)N[C@H](CCCCNC(=O)CCN8C(=O)CC(C)C8=O)C(N)=O)O[C@@H]7CO)O[C@@H]6CO)[C@@H](O)[C@@H](O[C@H]6O[C@H](CO)[C@@H](O)[C@H](O)[C@@H]6O[C@@H]6O[C@H](CO)C(O[C@@H]7O[C@H](CO[C@]8(C(=O)O)C[C@H](O)[C@@H](NC(C)=O)[C@H]([C@H](O)[C@H](O)CO)O8)[C@H](O)[C@H](O)[C@H]7O)[C@H](O)[C@H]6NC(C)=O)[C@@H]5O)O[C@H](CO)[C@@H](O)[C@@H]4O)[C@H](NC(C)=O)[C@H]3O)[C@H](O)[C@@H](O)[C@H]2O)C[C@@H]1O (some centres unmarked) [Conjugate-56],"blood flow AUC, % of vehicle group mean",[1]; 0.3 mg/kg,187.6%
same,"%, ischemia/nonischemia (blood flow on the last day of measurement)",[1]; 0.3 mg/kg,40.2 ± 5.6%
same,"blood flow AUC, % of vehicle group mean",[1]; 1 mg/kg,318.4%
same,"%, ischemia/nonischemia (blood flow on the last day of measurement)",[1]; 1 mg/kg,74.8 ± 11.0%
N=C(N)NCCC[C@@H]1NC(=O)[C@H](Cc2ccc3ccccc3c2)NC(=O)CSC[C@@H](C(N)=O)NC(=O)[C@H](C2CCCC2)NC(=O)[C@H](Cc2c[nH]c3ccccc23)NC(=O)[C@H](CCCNC(=N)N)NC(=O)[C@@H]2CCSSCC[C@H](NC1=O)C(=O)NCC(=O)N[C@@H](CCNC(=N)N)C(=O)N[C@@H](CC(N)=O)C(=O)N[C@@H](Cc1c[nH]c3ccccc13)C(=O)N2 [Peptide-1] ({CH2CO}-[2Nal]R[hCys]G[Agb]NW[hCys]RW[Gly(cPent)]C-NH2; disulfide 3-8; thioether N-12),"remaining at 4 h, 20 μM",[2],93.9%
same,IC50,human TSP1,12.6 nM
same,"remaining at 4 h, 20 μM",[3],90.6%
same,"remaining at 4 h, 20 μM","[4]; male, BALB/c CrSlc, mouse, mouse serum, residual ratio: IS ratio at 4 hours relative to 0 hours, 20 μM, 37° C.",101%
same,serum stability (in words),"[4]; statement covers mouse, monkey and human serum, 4 hours",high serum stability; also recorded: higher serum stability
CC(C)(C)[C@@H]1NC(=O)[C@H](Cc2ccc3ccccc3c2)NC(=O)CSC[C@@H](C(N)=O)NC(=O)[C@H](C2CCCC2)NC(=O)[C@H](Cc2c[nH]c3ccccc23)NC(=O)[C@H](CCCNC(=N)N)NC(=O)[C@@H]2CCSSCC[C@H](NC1=O)C(=O)NCC(=O)N[C@@H](CCCNC(=N)N)C(=O)N[C@@H](CC(N)=O)C(=O)N[C@@H](Cc1c[nH]c3ccccc13)C(=O)N2 [Peptide-8] ({CH2CO}-[2Nal][Tle][hCys]GRNW[hCys]RW[Gly(cPent)]C-NH2; disulfide 3-8; thioether N-12),IC50,human TSP1,12.6 nM
"Conjugate-10 (other, disulfide I:3-I:8; not fully specified; reading uncertain; also: Lys22 maleimide side chain thioether-linked to Fc hinge Cys6 and Cys9 (Eu 226, 229), thioether at chain A 1 at chain A 12 to a chain's N-terminus) peptide: [2Nal]R[hCys]GRDW[hCys]RW[Gly(cPent)]CGSGSDD[KPEG][P12P][P12P]K(maleimide)-NH2 DKTHTCPPCPAPEAAGGPSVFLFPPKPKDTLMISRTPEVTCVVVDVSHEDPEVKFNWYVDGVEVHNAKTKPREEQYNSTYRVVSVLTVLHQDWLNGKEYKCKVSNKALAAPIEKTISKAKGQPREPQVYTLPPSREEMTKNQVSLTCLVKGFYPSDIAVEWESNGQPENNYKTTPPVLDSDGSFFLYSKLTVDKSRWQQGNVFSCSVMHEALHNHYTQKSLSLSPGK",IC50 for inhibition of cell adhesion (HUVEC to coated human TSP1),[5],12.8 nM
